Measurements as given in patent US20020028836A1, “Potassium channel openers” (priority 2000, published 2002).
pEC50: −log10 of the molar value. Read-outs that look alike come from different tables or passages of the source.

Columns and labels:
[1] = tested on: primary cultured guinea-pig urinary bladder (GPB) cells; assay: Membrane hyperpolarization (MHP) assay, DiBAC(4)3 / FLIPR; type: cell-based; conditions: Cavia porcellus; for pEC50: concentration that elicits 50% of the maximal response for the test sample; for Emax: maximal steady-state hyperpolarization, normalized to response with 10 μM P1075 (100%)
Procedure: Compounds were evaluated for potassium channel opening activity using primary cultured guinea-pig urinary bladder (GPB) cells.
For the preparation of urinary bladder smooth muscle cells, urinary bladders were removed from male guinea-pigs (Hartley, Charles River, Wilmington, Mass.) weighing 300-400 g and placed in ice-cold Ca^2+-free Krebs solution (Composition, mM: KCl, 2.7; KH2PO4, 1.5; NaCl, 75; Na2HPO4, 9.6; Na2HPO4.7H2O, 8; MgSO4, 2; glucose, 5; HEPES, 10; pH 7.4). Cells were isolated by enzymatic dissociation as previously described with minor modifications (Klockner, U. and Isenberg, G., Pflugers Arch. (1985), 405, 329-339), hereby incorporated by reference. The bladder was cut into small sections and incubated in 5 mL of the Kreb's solution containing I mg/mL collagenase (Sigma, St. Louis, Mo.) and 0.2 mg/mL pronase (Calbiochem, La Jolla, Calif.) with continuous stirring in a cell incubator for 30 minutes. The mixture was then centrifuged at 1300×g for 5 minutes, and the pellet resuspended in Dulbecco's PBS (GIBCO, Gaithersburg, Md.) and recentrifuged to remove residual enzyme. The cell pellet was resuspended in 5 mL growth media (composition: Dulbecco's modified Eagle's medium supplemented with 10% fetal bovine serum, 100 units/mL penicillin, 100 units/mL streptomycin and […] amphotericin B) and further dissociated by pipetting the suspension through a flame-polished Pasteur pipette and passing it through a polypropylene mesh membrane (Spectrum, Houston, Tex.). The cell density was adjusted to 100,000 cells/mL by resuspension in growth media. Cells were plated in clear-bottomed black 96-well plates (Packard) for membrane potential studies at a density of 20,000 cells/well and maintained in a cell incubator with 90% air: 10% CO2 until confluent. Cells were confirmed to be of smooth muscle type by cytoskeletal staining using a monoclonal mouse anti human-α-smooth muscle actin (Biomeda, Foster City, Calif.).
Functional activity at potassium channels was measured by evaluating changes in membrane potential using the bis-oxonol dye DiBAC(4) (Molecular Probes) in a 96-well cell-based kinetic assay system, Fluorescent Imaging Plate Reader (FLIPR) (K. S. Schroeder et al., J. Biomed. Screen., v. 1 pp. 75-81 (1996)), hereby incorporated by reference. DiBAC(4)3 is an anionic potentiometric probe which partitions between cells and extracellular solution in a membrane potential-dependent manner. With increasing membrane potential (for example, K^+ depolarization), the probe further partitions into the cell; this is measured as an increase in fluorescence due to dye interaction with intracellular lipids and proteins. Conversely, decreasing membrane potential (hyperpolarization by potassium channel openers) evokes a decrease in fluorescence.
Confluent guinea-pig urinary bladder cells cultured in black clear-bottomed 96-well plates were rinsed twice with […] assay buffer (composition, mM: HEPES, 20; NaCl, 120; KCl, 2; CaCl2, 2; MgCl2, 1; glucose, 5; pH 7.4 at 25° C.) containing 5 μM DiBAC(4)3 and incubated with […] of the buffer in a cell incubator for 30 minutes at 37° C. to ensure dye distribution across the membrane. After recording the baseline fluorescence for 5 minutes, the reference or test compounds, prepared at 10 times the concentration in the assay buffer, were added directly to the wells. Changes in fluorescence were monitored for an additional 25 minutes. Hyperpolarization responses were corrected for any background noise and were normalized to the response observed with 10 μM of the reference compound P1075 (assigned as 100%), a potent opener of smooth muscle KATP channels (Quast et al., Mol. Pharmacol., v. 43 pp. 474-481 (1993)), hereby incorporated by reference.
Routinely, five concentrations of P1075 or test compounds (log or half-log dilutions) were evaluated and the maximal steady-state hyperpolarization values (expressed as % relative to P1075) plotted as a function of concentration. […]

[2] = tested on: tissue strips obtained from Landrace pig bladders; assay: Functional potassium channel opening activity in isolated bladder strips (field-stimulated twitch); conditions: for Index: ED50 for P1075 divided by ED50 for the test agonist in a given tissue, averaged; for pEC50: amount of agent necessary to cause 50% of the agent's maximal response, read-out: ED50 (the source's name)
Summary of the method: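 Mucosa-free female Landrace pig bladder strips in Krebs Ringer bicarbonate (pH 7.4, 37° C., 0.004 mM propranolol), 1.0 g preload, field-stimulated at 0.05 Hz, 0.5 ms, 20 V for twitch. Cumulative concentration-response curves; maximal efficacy as % of P1075, ED50 fitted, potency index = P1075 ED50/test ED50 per tissue, averaged.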

[3] = Sus scrofa, maximal efficacy relative to P1075, field stimulation 0.05 Hz, 0.5 ms, 20 volts

| pEC50 [1] | pEC50 ([2]; Sus scrofa) | pEC50 [2] | Compound | Emax [1] | Index [2] | Emax [2, 3] | Efficacy (% P1075) ([2]; maximal efficacy relative to P1075, field stimulation 0.05 Hz, 0.5 ms, 20 volts) |
| --- | --- | --- | --- | --- | --- | --- | --- |
| 5.40 | 4.80 |  | Cc1ccc(C(=O)N[C@H](NC(=S)Nc2cccnc2)C(C)(C)C)cc1 [Example 23, N-((1R)-2,2-dimethyl-1-{[(3-pyridinylamino)carbothioyl]amino}propyl)-4-methylbenzamide] | 66% | 0.009 | 100% |  |
| 7.10 | 4.77 |  | Cc1ccc(C(=O)N[C@@H](NC(=S)Nc2cccnc2)C(C)(C)C)cc1 [Example 24, N-((1S)-2,2-dimethyl-1-{[(3-pyridinylamino)carbothioyl]amino}propyl)-4-methylbenzamide] | 93% | 0.007 | 100% |  |
| 7.15 | 6.00 |  | Cc1ccc(C(=O)NC(NC(=S)Nc2cccc([N+](=O)[O-])c2)C(C)(C)C)cc1 (centres unmarked) [Example 25, N-(2,2-dimethyl-1-{[(3-nitroanilino)carbothioyl]amino}propyl)-4-methylbenzamide] | 103% | 0.078 | 100% |  |
| 7.00 | 4.60 |  | CC(C)(C)C(NC(=O)c1ccc(Cl)cc1)NC(=S)Nc1cccnc1 (centres unmarked) [Example 27, 4-chloro-N-(2,2-dimethyl-1-{[(3-pyridinylamino)carbothioyl]amino}propyl)benzamide] | 80% | 0.009 | 94% |  |
| 6.30 | 4.38 |  | CC(C)(C)C(NC(=O)c1ccccc1)NC(=S)Nc1cccnc1 (centres unmarked) [Example 28, N-(2,2-dimethyl-1-{[(3-pyridinylamino)carbothioyl]amino}propyl)benzamide] | 77% | 0.004 | 100% |  |
| 6.66 | 4.92 |  | Cc1ccc(C(=O)NC(NC(=S)Nc2cccc([N+](=O)[O-])c2)c2ccccc2)cc1 (centres unmarked) [Example 33, 4-methyl-N-[{[(3-nitroanilino)carbothioyl]amino}(phenyl)methyl]benzamide] | 102% | 0.027 | 80% |  |
| 6.30 | 4.64 |  | Cc1ccc(C(=O)NC(NC(=S)Nc2cccnc2)c2ccccc2)cc1 (centres unmarked) [Example 34, 4-methyl-N-(phenyl{[(3-pyridinylamino)carbothioyl]amino}methyl)benzamide] | 80% | 0.003 | 99% |  |
| 7.00 | 5.15 |  | Cc1ccc(C(=O)NC(NC(=O)Nc2cccnc2)C(Cl)(Cl)Cl)cc1 (centres unmarked) [Example 38, 4-methyl-N-(2,2,2-trichloro-1-{[(3-pyridinylamino)carbonyl]amino}ethyl)benzamide] | 100% | 0.015 | 98% |  |
| 6.92 | 4.82 |  | O=C(Nc1cccnc1)NC(NC(=O)c1ccccc1)C(Cl)(Cl)Cl (centres unmarked) [Example 40, N-(2,2,2-trichloro-1-{[(3-pyridinylamino)carbonyl]amino}ethyl)benzamide] | 100% | 0.007 | 100% |  |
| 7.40 | 5.70 |  | Cc1ccc(C(=O)NC(NC(=NC#N)Nc2cccnc2)C(Cl)(Cl)Cl)cc1 (centres unmarked) [Example 44, 4-methyl-N-(2,2,2-trichloro-1-{[(cyanoimino)(3-pyridinylamino)methyl]amino}ethyl)benzamide] | 103% | 0.040 | 95% |  |
| 7.22 | 4.44 |  | Cc1ccc(C(=O)NC(NC(=NC#N)Nc2ccccc2F)C(Cl)(Cl)Cl)cc1 (centres unmarked) [Example 47, 4-methyl-N-(2,2,2-trichloro-1-{[(cyanoimino)(2-fluoroanilino)methyl]amino}ethyl)benzamide] | 98% | 0.019 | 67% |  |
| 7.40 | 5.52 |  | N#CN=C(Nc1cccnc1)NC(NC(=O)c1ccccc1)C(Cl)(Cl)Cl (centres unmarked) [Example 49, N-(2,2,2-trichloro-1-{[(cyanoimino)(3-pyridinylamino)methyl]amino}ethyl)benzamide] | 92% | 0.031 | 100% |  |
| 7.00 | 4.77 |  | Cc1ccccc1C(=O)NC(NC(=NC#N)Nc1cccnc1)C(Cl)(Cl)Cl (centres unmarked) [Example 50, 2-methyl-N-(2,2,2-trichloro-1-{[(cyanoimino)(3-pyridinylamino)methyl]amino}ethyl)benzamide] | 92% | 0.007 | 90% |  |
| 6.60 | 5.74 |  | C=CC(C)(C)CC(NC(=O)c1ccc(Cl)cc1)NC(=NC#N)Nc1cccnc1 (centres unmarked) [Example 92, 4-chloro-N-(1-{[(cyanoimino)(3-pyridinylamino)methyl]amino}-3,3-dimethyl-4-pentenyl)benzamide] | 71% | 0.047 | 76% |  |
| 5.96 | 4.48 |  | CC(C)(C)OC(=O)N1CCC[C@@H]1[C@@H](NC(=O)c1ccc(Cl)cc1)NC(=NC#N)Nc1cccnc1 [Example 98, Tert-butyl (2R)-2-((R)-[(4-chlorobenzoyl)amino]{[(cyanoimino)(3-pyridinylamino)methyl]amino}methyl)-1-pyrrolidinecarboxylate] | 62% | 0.004 | 30% |  |
| 7.30 | 5.62 |  | CC(C)(C)C(NC(=O)c1ccc(I)cc1)NC(=NC#N)Nc1cccnc1 (centres unmarked) [Example 103, N-(1-{[(cyanoimino)(3-pyridinylamino)methyl]amino}-2,2-dimethylpropyl)-4-iodobenzamide] | 103% | 0.450 | 83% |  |
| 6.20 | 4.92 |  | CC(C)(C)C(NC(=O)c1ccc(Cl)cc1F)NC(=NC#N)Nc1cccnc1 (centres unmarked) [Example 106, 4-chloro-N-(1-{[(cyanoimino)(3-pyridinylamino)methyl]amino}-2,2-dimethylpropyl)-2-fluorobenzamide] | 85% | 0.010 | 69% |  |
| 6.07 | 5.00 |  | CC(C)(C)C(NC(=O)c1ccc(Cl)cc1)NC(=N[N+](=O)[O-])Nc1cccnc1 (centres unmarked) [Example 123, 4-chloro-N-(1-{[(nitroimino)(3-pyridinylamino)methyl]amino}-2,2-dimethylpropyl)benzamide] | 90% | 0.028 | 63% |  |
| 6.96 |  | 5.03 | CC(C)(C)CC(NC(=O)c1ccc(Cl)cc1)NC(=N[N+](=O)[O-])Nc1cccnc1 (centres unmarked) [Example 124, 4-chloro-N-(1-{[(nitroimino)(3-pyridinylamino)methyl]amino}-3,3-dimethylbutyl)benzamide] | 98% | 0.012 |  | 47 % P1075 |
